Legend:
[1] = tested on: Rabbit (R) anti-P58-130 serum; test: Immunoprecipitation of [125I] synthetic peptides by rabbit anti-P58-130 serum; type: binding; details: rabbit anti-P58-130 serum 20 ul/0.2 ml, second antibody precipitation; for x-fold increase of specific over non-specific precipitation, RαP58-130: vs normal rabbit serum
Experimental: (§1) Synthetic peptides were radiolabeled with ^125I (Amersham) by the chloramine T method (N. M. Hunter, “Radioimmunoassay” in D. M. Weir, Ed., Handbook of Experimental Immunology, [Blackwell Scientific Publications, 1973]). Generally, 2-6 ul of 100 mCi/ml ^125I were added to 10-50 ug of peptide in PBS, pH 7.4. Approximately 10 ug of freshly prepared (1 mg/ml in PBS) chloramine T were added to the mixture maintained at 4° C. After 5 min., [^125I]peptide was separated from free ^125I by passage of the reaction mixture through a 3 ml (bed volume) column of Biogel P-6 or P-2, as required. Fractions (200 ul each) containing [^125I]peptide were pooled and diluted into PBS containing 20% fetal calf serum. Rough estimations of ^125I cpm bound to peptide were made by acid precipitation. An aliquot of labeled peptide was diluted into 1 ml of ice cold 50% trichloroacetic acid (TCA) overlaying a 0.45 um filter (made of mixed cellulose esters) set on a scintered glass filter connected to a vacuum apparatus. Precipitated protein was fixed onto the filter by application of vacuum, and filters were washed with ice-cold 50% TCA. Background cpm adhering non-specifically to the filter were estimated by repeating the procedure using a non-precipitating buffer. Amounts of peptide, ^125I, chloramine T, and composition of column eluting buffer were subject to change depending on conditions required to maintain solubility of each peptide.
(§2) Synthetic peptides radiolabeled with ^125I were diluted into PBS (pH 7.4) containing 0.1% Triton X-100 (or other detergents where indicated) and 1.0% BSA, to yield approximately 2.5-5×10^5 acid-precipitable cpm per 0.1 ml. Purified monoclonal IgG 5-21-3 and 10-15-63 were employed in the assay. Monoclonal antibodies were diluted into PBS containing 0.1% Triton X-100 (or other detergents where indicated), 1.0% BSA, and 2% normal mouse serum as a carrier immunoglobulin. Immune rabbit serum (anti-P58-130) was diluted appropriately into the same buffer except that normal rabbit serum (2%) was substituted for normal mouse serum as the carrier immunoglobulin. A reaction mixture comprising 0.1 ml [^125I] peptide (5×10^5 cpm/0.1 ml) and 0.1 ml diluted antibody was incubated 1 hr at 40° C., followed by addition of 0.1 ml of a precipitating antibody, either goat anti-mouse IgG, or goat anti-rabbit IgG, corresponding to the primary antibody. The reaction mixture was incubated 1 hr at 40° C. and then overnight at 4° C. […] Precipitation assays employing Protein A-Sepharose as the precipitating reagent were performed in a similar manner, except that normal sera were omitted from the reaction mixtures.

[2] = tested on: monoclonal antibody 10-15-63; test: Immunoprecipitation of [125I] synthetic peptides by 10-15-63; type: binding, mouse; details: for SPECIFIC PRECIPITATION (CPM) by 10-15-63 / x-fold increase of specific over non-specific precipitation, 10-15-63: 10-15-63 10 μg/0.2 ml, second antibody precipitation; for SPECIFIC PRECIPITATION (CPM) by 10-15-63: PBS, 0.1% Triton X-100, 1.0% BSA, carrier serum; for x-fold increase of specific over non-specific precipitation, 10-15-63: vs normal mouse IgG
Experimental: as §1, §2

[3] = tested on: monoclonal antibody 5-21-3; test: Immunoprecipitation of [125I] synthetic peptides by 5-21-3; type: binding, mouse; details: for SPECIFIC PRECIPITATION (CPM) by 5-21-3 / x-fold increase of specific over non-specific precipitation, 5-21-3: 5-21-3 10 μg/0.2 ml, second antibody precipitation; for SPECIFIC PRECIPITATION (CPM) by 5-21-3: PBS, 0.1% Triton X-100, 1.0% BSA, carrier serum; for x-fold increase of specific over non-specific precipitation, 5-21-3: vs normal mouse IgG
Experimental: as §1, §2

[4] = tested on: binding of antibody 5-21-3 to rp41; test: Binding inhibition assay: peptides inhibit binding of 5-21-3 to rp41; parameters: species or system HIV I; details: for Molar Ratio at 50% inhibition of 5-21-3 binding: mean of two experiments, 0.4 pmol 5-21-3 IgG per well
Experimental: Additional evidence for the conformationl nature of the 5-21-3 epitope was obtained using binding inhibition studies, in which synthetic peptides were ranked for their ability to inhibit binding of 5-21-3 to rp41. First, the Fab dimer of an anti-gp41 monoclonal antibody was prepared by conventional methods (Goding et al., supra). Then 100 ul of a 1 mg/ml solution of the Fab dimer in bicarbonate buffer (pH 9.6) was coated onto Immulon II microtiter plates for 1 hr at 37° C. After washing with PBS containing 0.05% Tween 20, the plates were overcoated with 200 ul of 1.0% ovalbumin in bicarbonate buffer (pH 9.6) for 1 hr at 30° C. After washing, 100 ul of rp41 enriched E. coli lysate (as described in Example 3), diluted appropriately in PBS containing 0.05% Tween 20, were allowed to bind to the Fab dimer for 2 hr at 30° C. The plates were washed and stored at 4° C.
Intact monoclonal antibody 5-21-3 IgG (purified from tissue culture fluid supporting growth of the cloned cell line 5-21-3) was titrated against the bound rp41 on the plate, and an antibody concentration was selected which yielded an A492 value of 2.0-3.0. Usually, 0.4 pmol (0.06 ug) of 5-21-3 IgG per microtiter well was employed in these assays. Stock solutions of 5-21-3 IgG were prepared in PBS containing 0.1% Triton X-100 and 0.1% SDS. Dilutions of synthetic peptides were made in the same buffer (SDS was included in these experiments to keep peptides soluble at high concentrations).
The binding inhibition assay was performed by combining 0.15 ml of 1.2 ug/ml 5-21-3 antibody stock solution with 0.15 ml of peptide at a selected peptide concentration, and incubating the reaction mixture 1 hr at room temp. Then 0.1 ml aliquots of each reaction mixture were added to each of two wells in the microtiter tray. After a 1 hr incubation at room temp., the plates were washed, and HRPO conjugated Goat anti-mouse IgG Fc was added for 1 hr at room temp. The plates were washed, and addition of OPD for color development identified the relative amounts of 5-21-3 bound to rp41 in the microtiter wells. The reaction was stopped by addition of 100 ul of 1N H2SO4, and the plates were read on a Dynatech II microtiter plate reader.

Sequence | SPECIFIC PRECIPITATION (CPM) by RαP58-130 [1] [CPM] | x-fold increase of specific over non-specific precipitation, RαP58-130 [1] | SPECIFIC PRECIPITATION (CPM) by 10-15-63 [2] [CPM] | x-fold increase of specific over non-specific precipitation, 10-15-63 [2] | binding of [125I]peptide by 5-21-3 (immunoprecipitation), in words [3] | SPECIFIC PRECIPITATION (CPM) by 5-21-3 [3] [CPM] | x-fold increase of specific over non-specific precipitation, 5-21-3 [3] | inhibition of 5-21-3 binding to rp41, in words [4] | Molar Ratio at 50% inhibition of 5-21-3 binding [4] | further results
IHSLIEESQNQQEKNEQELLELDK [P131-154] | 0 | (<1) x-fold | 0 | (<1) x-fold | unable to bind | 970 | (1.1) x-fold | could not be demonstrated | >50,000 pmoles peptide/pmoles 5-21-3 | SPECIFIC PRECIPITATION (CPM) ([2]; 10-15-63 1.0 μg/ml final): 0 CPM; x-fold increase of specific over non-specific precipitation ([2]; 10-15-63 1.0 μg/ml final): (0) x-fold; SPECIFIC PRECIPITATION (CPM) ([2]; 10-15-63 10.0 μg/ml final): 0 CPM; x-fold increase of specific over non-specific precipitation ([2]; 10-15-63 10.0 μg/ml final): (0) x-fold; SPECIFIC PRECIPITATION (CPM) ([2]; 10-15-63 100.0 μg/ml final): 112 CPM; x-fold increase of specific over non-specific precipitation ([2]; 10-15-63 100.0 μg/ml final): (1.1) x-fold; SPECIFIC PRECIPITATION (CPM) ([3]; 5-21-3 1.0 μg/ml final): 0 CPM; x-fold increase of specific over non-specific precipitation ([3]; 5-21-3 1.0 μg/ml final): (0) x-fold; SPECIFIC PRECIPITATION (CPM) ([3]; 5-21-3 10.0 μg/ml final): 0 CPM; x-fold increase of specific over non-specific precipitation ([3]; 5-21-3 10.0 μg/ml final): (0) x-fold; SPECIFIC PRECIPITATION (CPM) ([3]; 5-21-3 100.0 μg/ml final): 0 CPM; x-fold increase of specific over non-specific precipitation ([3]; 5-21-3 100.0 μg/ml final): (0) x-fold; 5-21-3 concentration required to demonstrate binding of the peptide ([3]; immunoprecipitation, Table 5): could not be demonstrated
IHSLIEESQNQQEKNEQELLELDKWANLWNWLNITNWLWYIKLFI [P131-175] | 0 | (<1) x-fold | 188 | (1.4) x-fold | Little or no binding activity | 317 | (1.6) x-fold | definite inhibitor | 18,815 pmoles peptide/pmoles 5-21-3 | 

— patent US20030118985A1, “Mouse monoclonal antibody (5-21-3) to human immunodeficiency virus gp41 protein” (priority 1997, published 2003)
